Assay results from US20120135923A1, “Use of Melanocortins to Treat Dyslipidemia” (IPSEN PHARMA, S.A.S., priority 2009, published 2012).
Like-named read-outs stand apart in the source and are kept apart here. Bridge positions count the residues as written; N and C are the ends. Square brackets hold non-standard residues; d marks the D form. Peptide text beside a SMILES is read from it. Pen = CC(C)(S)[C@H](N)C(=O)O; GABA = NCCCC(=O)O

Tests used:
[1] = target: T1, hMC5-R (Homo sapiens, UniProt P33032); assay: cyclic AMP bioassay (ECL) in CHO-K1 cells; format: cell-based
T1 construct: expressed in transfected cells; host or cells: CHO-K1
T1 sequence (P33032 whole entry): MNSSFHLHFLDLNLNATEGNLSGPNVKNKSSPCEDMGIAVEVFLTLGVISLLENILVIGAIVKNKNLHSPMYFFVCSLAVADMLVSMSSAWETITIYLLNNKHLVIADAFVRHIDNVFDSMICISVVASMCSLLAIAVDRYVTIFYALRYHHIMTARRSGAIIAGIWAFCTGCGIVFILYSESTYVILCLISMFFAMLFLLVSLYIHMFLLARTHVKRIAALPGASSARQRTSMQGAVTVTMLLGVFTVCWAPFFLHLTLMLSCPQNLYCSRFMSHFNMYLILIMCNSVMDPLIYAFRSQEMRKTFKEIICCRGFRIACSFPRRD
Method: (§3) Intracellular cyclic AMP (cAMP) levels were determined by an electrochemiluminescence (ECL) assay (Meso Scale Discovery®, Gaithersburg, Md.; referred to hereinafter as MSD). […] Transgenic CHO-K1 cells stably expressing hMC receptor subtypes 1, 3, 4 or 5 were dispensed at a density of approximately 7,000 cells/well in 384-well Multi-Array®plates (MSD) containing integrated carbon electrodes and coated with anti-cAMP antibody. Increasing concentrations of the test compounds were added and the cells were incubated for approximately 40 minutes at approximately 37° C. […] At the end of the second incubation period read buffer (Tris-buffered solution containing an ECL co-reactant and Triton X-100 at ph 7.8) was added and the cAMP levels in the cell lysates were immediately determined by ECL detection with a Sector Imager 6000 Reader® (MSD). Data were analyzed using a computer-assisted non-linear regression analysis (XL fit; IDBS) and reported as either an EC50 value or a Kb value.
(§4) The Kb value reflects the potency of an antagonist and is determined by Schild analysis. In brief, concentration-response curves of an agonist are carried out in the presence of increasing concentrations of an antagonist. […] It is calculated by extrapolating the line on a Schild plot to zero on the y-axis.

[2] = target: T2, hMC1-R (Homo sapiens, UniProt Q01726); assay: Radioligand binding assay, [125I]-NDP-α-MSH competition, CHO-K1 membranes; conditions: Table 5
T2 construct: expressed in transfected cells; host or cells: CHO-K1
T2 sequence (Q01726 whole entry): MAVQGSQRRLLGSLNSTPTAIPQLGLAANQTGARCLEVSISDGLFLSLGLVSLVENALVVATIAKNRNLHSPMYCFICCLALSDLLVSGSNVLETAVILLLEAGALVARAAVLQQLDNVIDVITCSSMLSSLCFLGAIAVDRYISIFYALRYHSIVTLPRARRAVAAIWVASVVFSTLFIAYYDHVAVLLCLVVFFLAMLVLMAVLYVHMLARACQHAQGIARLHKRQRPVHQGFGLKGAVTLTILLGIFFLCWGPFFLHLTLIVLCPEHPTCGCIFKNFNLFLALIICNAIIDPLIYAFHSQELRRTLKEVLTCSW
Method: (§1) Cellular membranes used for the in vitro receptor binding assays were obtained from transgenic CHO-K1 cells stably expressing hMC-R receptor subtypes 1, 3, 4 or 5. […] The pellets were resuspended in the same buffer and centrifuged at 50,000 g for 10 minutes at approximately 4° C. The washed pellets containing the cellular membranes were stored at approximately −80° C.
(§2) Cell membranes (1-10 μg protein/well) prepared as described above were incubated in 50 mM Tris-HCl at pH 7.4 containing 0.2% bovine serum albumin (BSA), 5 mM MgCl2, 1 mM CaCl2 and 0.1 mg/mL bacitracin, with increasing concentrations of the test compound and 0.1-0.3 nM [^25I]-NDP-α-MSH for approximately 90-120 minutes at approximately 37° C. […] Filters were washed three times with 50 mM Tris-HCl at pH 7.4 at a temperature of approximately 0-4° C. and then assayed for radioactivity using a Packard Topcount® scintillation counter. Binding data were analyzed by computer-assisted non-linear regression analysis (XL fit; IDBS).

[3] = target: T3, hMC4-R (Homo sapiens, UniProt P32245); assay: cyclic AMP bioassay (ECL) in CHO-K1 cells; format: cell-based
T3 construct: expressed in transfected cells; host or cells: CHO-K1
T3 sequence (P32245 whole entry): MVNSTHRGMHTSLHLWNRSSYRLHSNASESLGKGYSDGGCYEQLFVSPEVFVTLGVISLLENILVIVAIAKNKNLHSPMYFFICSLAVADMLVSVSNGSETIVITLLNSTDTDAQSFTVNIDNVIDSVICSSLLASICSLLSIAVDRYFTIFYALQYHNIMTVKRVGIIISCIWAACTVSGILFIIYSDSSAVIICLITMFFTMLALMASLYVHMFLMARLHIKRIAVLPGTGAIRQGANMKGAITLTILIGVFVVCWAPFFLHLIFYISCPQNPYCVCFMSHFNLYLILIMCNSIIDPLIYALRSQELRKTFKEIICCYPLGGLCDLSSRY
Method: as §3, §4

[4] = target: T2, hMC1-R; assay: cyclic AMP bioassay (ECL) in CHO-K1 cells; format: cell-based
Method: as §3, §4

[5] = target: T4, hMC3-R (Homo sapiens, UniProt P41968); assay: cyclic AMP bioassay (ECL) in CHO-K1 cells; format: cell-based
T4 construct: expressed in transfected cells; host or cells: CHO-K1
T4 sequence (P41968 whole entry): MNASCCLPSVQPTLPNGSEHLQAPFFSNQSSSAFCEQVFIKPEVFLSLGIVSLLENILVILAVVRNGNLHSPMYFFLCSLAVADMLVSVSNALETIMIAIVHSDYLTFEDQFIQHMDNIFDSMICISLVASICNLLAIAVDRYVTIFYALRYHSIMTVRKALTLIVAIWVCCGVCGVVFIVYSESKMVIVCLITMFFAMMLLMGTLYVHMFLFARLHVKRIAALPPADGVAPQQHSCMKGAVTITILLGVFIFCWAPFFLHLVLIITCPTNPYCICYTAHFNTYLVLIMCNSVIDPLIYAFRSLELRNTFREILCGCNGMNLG
Method: as §3, §4

[6] = target: T1, hMC5-R; assay: Radioligand binding assay, [125I]-NDP-α-MSH competition, CHO-K1 membranes; conditions: Table 5; read-out: Ki hMC5-R
Method: as §1, §2

[7] = target: T4, hMC3-R; assay: as above
Method: as §1, §2

[8] = Table 9A/9B, read-out: EC50 hMC5-R
[9] = Table 9A/9B, read-out: EC50 hMC4-R
[10] = Table 9A/9B, read-out: EC50 hMC1-R
[11] = Table 9A/9B, read-out: EC50 hMC3-R

Structure (SMILES) | EC50 [1, 8] [nM] | Ki ([2]; read-out: Ki hMC1-R) [nM] | EC50 [3, 9] [nM] | EC50 [4, 10] [nM] | EC50 [5, 11] [nM] | Ki ([7]; Table 5, read-out: Ki hMC3-R) [nM] | further results
CC(=O)N[C@H](CCCNC(=N)N)C(=O)N[C@H]1CSSC(C)(C)[C@@H](C(N)=O)NC(=O)CCCNC(=O)[C@H](Cc2c[nH]c3ccccc23)NC(=O)[C@H](CCCNC(=N)N)NC(=O)[C@@H](Cc2ccccc2)NC(=O)[C@H](Cc2c[nH]cn2)NC1=O [Ac-D-Arg-c(Cys-His-D-Phe-Arg-Trp-Gaba-Pen)-NH2] (Ac-[dR]CH[dF]RW[GABA][Pen]-NH2; disulfide 2-8 (inferred)) | 2140 | 3.93 | 0.959 | 8.43 | 32.4 | – | –
CCCC[C@H](NC(C)=O)C(=O)N[C@H]1CSSC[C@@H](C(N)=O)NC(=O)[C@H](Cc2c[nH]c3ccccc23)NC(=O)[C@H](CCCNC(=N)N)NC(=O)[C@@H](Cc2ccccc2)NC(=O)[C@H](Cc2c[nH]cn2)NC(=O)[C@@H](C(C)C)NC1=O [Ac-Nle-c(Cys-D-Val-His-D-Phe-Arg-Trp-Cys)-NH2] | – | – | – | – | – | 104 | Ki [6]: 40 nM
CC(=O)N[C@@H](CC(C)C)C(=O)N[C@H]1CSSC[C@@H](C(N)=O)NC(=O)CCCNC(=O)[C@H](Cc2c[nH]c3ccccc23)NC(=O)[C@H](CCCNC(=N)N)NC(=O)[C@@H](Cc2ccccc2)NC(=O)[C@H](Cc2c[nH]cn2)NC1=O [Ac-Leu-c(Cys-His-D-Phe-Arg-Trp-Gaba-Cys)-NH2] (Ac-LCH[dF]RW[GABA]C-NH2; disulfide 2-8 (inferred)) | – | – | – | – | – | 17.4 | –
CC(=O)N[C@H](C(=O)N[C@H]1CSSC[C@@H](C(N)=O)NC(=O)CCCNC(=O)[C@H](Cc2c[nH]c3ccccc23)NC(=O)[C@H](CCCNC(=N)N)NC(=O)[C@@H](Cc2ccccc2)NC(=O)[C@H](Cc2c[nH]cn2)NC1=O)C(C)C [Ac-Val-c(Cys-His-D-Phe-Arg-Trp-Gaba-Cys)-NH2] (Ac-VCH[dF]RW[GABA]C-NH2; disulfide 2-8 (inferred)) | – | 0.256 | – | – | – | – | –
CC(=O)N[C@H]1CSSC[C@@H](C(=O)N2CCC[C@H]2C(=O)N2CCC[C@H]2C(=O)N[C@@H](CCCCN)C(=O)N[C@@H](CC(=O)O)C(=O)NCCC(=O)N[C@@H](CCCNC(=N)N)C(=O)N[C@@H](CCCNC(=N)N)C(=O)N[C@@H](CCCNC(=N)N)C(=O)N[C@@H](CCCNC(=N)N)C(=O)N[C@@H](CCCNC(=N)N)C(=O)N[C@@H](CCCNC(=N)N)C(=O)N[C@@H](CCC(N)=O)C(=O)N[C@@H](CCCNC(=N)N)C(=O)N[C@@H](CCCNC(=N)N)C(=O)N[C@@H](CCCNC(=N)N)C(N)=O)NC(=O)[C@H](C)NC(=O)[C@H](Cc2csc3ccccc23)NC(=O)[C@H](CCCNC(=N)N)NC(=O)[C@@H](Cc2ccc3ccccc3c2)NC(=O)[C@H](Cc2c[nH]cn2)NC(=O)[C@H](CCC(=O)O)NC1=O | – | – | – | – | – | – | EC50 [1]: > 10000 nM; Ki ([7]; Ki hMC3-R, Table 6): 14.3 nM; Kb [3]: 33.2 nM; EC50 [4]: 68.6 nM; Kb [5]: 153 nM
N=C(N)NCCC[C@@H]1NC(=O)[C@@H](Cc2ccccc2)NC(=O)[C@H](Cc2c[nH]cn2)NC(=O)[C@@H](NC(=O)[C@@H](N)Cc2ccccc2)CSSC[C@@H](C(N)=O)NC(=O)CCCNC(=O)[C@H](Cc2c[nH]c3ccccc23)NC1=O [Phe-c(Cys-His-D-Phe-Arg-Trp-Gaba-Cys)-NH2] (H-FCH[dF]RW[GABA]C-NH2; disulfide 2-8) | – | – | – | – | – | 15.2 | –
CC(=O)N[C@H](CCCNC(=N)N)C(=O)N[C@H]1CC(=O)NCCCC[C@@H](C(N)=O)NC(=O)[C@H](C)NC(=O)[C@H](Cc2c[nH]c3ccccc23)NC(=O)[C@H](CCCNC(=N)N)NC(=O)[C@@H](Cc2ccccc2)NC(=O)[C@H](Cc2c[nH]cn2)NC1=O [Ac-D-Arg-c(Asp-His-D-Phe-Arg-Trp-Ala-Lys)-NH2] | 297 | 0.79 | 0.078 | 1.48 | 5.76 | – | –
CCCC[C@H](NC(C)=O)C(=O)N[C@H]1CSSC[C@@H](C(N)=O)NC(=O)[C@H](Cc2c[nH]c3ccccc23)NC(=O)[C@H](CCCNC(=N)N)NC(=O)[C@@H](Cc2ccccc2)NC(=O)[C@H](Cc2c[nH]cn2)NC(=O)[C@@H](CC2CCCCC2)NC1=O [Ac-Nle-c(Cys-D-Cha-His-D-Phe-Arg-Trp-Cys)-NH2] | 45.3 | – | 0.453 | 0.819 | 0.541 | 2.08 | –
CCCC[C@H](NC(C)=O)C(=O)N[C@H]1CSSC(C)(C)[C@@H](C(N)=O)NC(=O)[C@H](Cc2c[nH]c3ccccc23)NC(=O)[C@H](CCCNC(=N)N)NC(=O)[C@@H](Cc2ccccc2)NC(=O)[C@H](Cc2c[nH]cn2)NC(=O)[C@@H](C)NC1=O [Ac-Nle-c(Cys-D-Ala-His-D-Phe-Arg-Trp-Pen)-NH2] | – | – | – | – | – | – | EC50 [1]: 2240 nM; Ki ([2]; Ki hMC1-R): 29.1 nM; Ki ([7]; Ki hMC3-R, Table 5): 22.8 nM; EC50 [3]: 0.183 nM; EC50 [4]: 14.3 nM; EC50 [5]: 2.03 nM
